# In patent US8153818B2, “Triazolyl phenyl benzenesulfonamides” (ChemoCentryx, Inc., priority 2006, dated 2012):
# pIC50: −log10 of the molar value.
# Biological target: T1, CCR9 (Homo sapiens, UniProt P51686)
# T1 construct: chemokine expressing cells (such as THP-1 cells for CCR2 assay or MOLT-4 cells for CCR9 assay); host or cells: MOLT-4
# T1 sequence (P51686 1-369): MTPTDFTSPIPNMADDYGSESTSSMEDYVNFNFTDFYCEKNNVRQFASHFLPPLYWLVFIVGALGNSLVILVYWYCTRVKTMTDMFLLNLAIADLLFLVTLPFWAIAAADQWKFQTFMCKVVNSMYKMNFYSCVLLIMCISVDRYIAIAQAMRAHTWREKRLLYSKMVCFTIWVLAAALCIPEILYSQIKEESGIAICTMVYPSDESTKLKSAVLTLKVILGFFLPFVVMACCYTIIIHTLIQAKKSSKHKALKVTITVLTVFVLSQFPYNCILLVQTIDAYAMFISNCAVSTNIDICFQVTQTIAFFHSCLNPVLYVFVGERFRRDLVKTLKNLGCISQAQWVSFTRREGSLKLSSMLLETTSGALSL
# Experiment: CCR9 activity in one of the chemotaxis, binding or calcium mobilization assays
# Format: cell-based
# Conditions: assay not specified per compound
# Protocol: Conventional migration assay was used to determine the efficacy of potential receptor antagonists in blocking migration mediated through chemokines (such as CCR2 or CCR9). This assay was routinely performed using the ChemoTX® microchamber system with a 5-μm pore-sized polycarbonate membrane. To begin such an assay, chemokine expressing cells (such as THP-1 cells for CCR2 assay or MOLT-4 cells for CCR9 assay) were harvested by centrifugation of cell suspension at 1000 RPM on a GS-6R Beckman centrifuge. The cell pellet was resuspended in chemotaxis buffer (HBSS with 0.1% BSA) at 10×10^6 cells/mL for CCR2 assay (5×10^6 cells/mL for CCR9 assay). Test compounds at desired concentrations were prepared from 10 mM stock solutions by serial dilutions in chemotaxis buffer. An equal volume of cells and compounds were mixed and incubated at room temperature for 15 minutes. Afterwards, 20 μL of the mixture was transferred onto the porous membrane of a migration microchamber, with 29 μL of chemokine ligand (0.1 nM chemokine MCP-1 protein for CCR2 assay or […] chemokine TECK protein for CCR9 assay) placed at the lower chamber. Following an incubation at 37° C. (90-minute for CCR2; 150-minute for CCR9), during which cells migrated against the chemokine gradient, the assay was terminated by removing the cell drops from atop the filter. To quantify cells migrated across the membrane, 5 μL of 7×CyQUANT® solution was added to each well in the lower chamber, and the fluorescence signal measured on a Spectrafluor Plus fluorescence plate reader (TECAN, Durham, N.C.). The degree of inhibition was determined by comparing migration signals between compound-treated and untreated cells. IC50 calculation was further performed by non-linear squares regression analysis using Graphpad Prism (Graphpad Software, San Diego, Calif.).
# Calcium flux assay measures an increase in intracellular calcium following ligand-induced receptor activation. In the screen of chemokine antagonists, it was used as a secondary assay carried out on a FLIPR® machine (Molecular Devices, Mountain View, Calif.). To begin an assay, chemokine expressing cells (such as THP-1 cells for CCR2 assay or MOLT-4 cells for CCR9 assay) were harvested by centrifugation of cell suspension, and resuspended to 1.5×10^6 cells/mL in HBSS (with 1% fetal calf serum). Cells were then labeled with a calcium indicator dye Fluo-4 AM for 45 minutes at 37° C. with gentle shaking. Following incubation, cells were pelletted, washed once with HBSS and resuspended in the same buffer at a density of 1.6×10^6 cells/mL. One hundred microliters of labeled cells were mixed with 10 μL of test compound at the appropriate concentrations on an assay plate. Chemokine protein (MCP-1 at a final concentration of 0.1 nM for CCR2 assay or TECK at a final concentration of 25 nM for CCR9 assay) to activate the receptor. The degree of inhibition was determined by comparing calcium signals between compound-treated and untreated cells. IC50 calculations were further performed by non-linear squares regression analysis using Graphpad Prism (Graphpad Software, San Diego, Calif.). […]
# In the tables below, structures and activity are provided for representative compounds described herein. Activity is provided as follows for either or both of the chemotaxis assay and/or calcium mobilization assays, described above.
row,pIC50,Structure (SMILES)
1,> 6.00,"CCOC(=O)Cc1nnc(-c2cc(Cl)c(F)cc2NS(=O)(=O)c2ccc(C(C)(C)C)cc2)n1C [Compound 64, ethyl 2-(5-(2-(4-tert-butylphenylsulfonamido)-5-chloro-4-fluorophenyl)-4-methyl-4H-1,2,4-triazol-3-yl)acetate]"
2,> 6.00,"Cn1c(CC(C)(C)O)nnc1-c1cc(Cl)c(F)cc1NS(=O)(=O)c1ccc(C(C)(C)C)cc1 [Compound 65, 4-tert-butyl-N-(4-chloro-5-fluoro-2-(5-(2-hydroxy-2-methylpropyl)-4-methyl-4H-1,2,4-triazol-3-yl)phenyl)benzenesulfonamide]"
3,> 6.00,Cn1c(CN2CCOCC2)nnc1-c1cc(Cl)c(F)cc1NS(=O)(=O)c1ccc(C(C)(C)C)cc1 [Compound 66]
4,> 6.00,"Cn1c(CS(C)(=O)=O)nnc1-c1cc(Cl)c(F)cc1NS(=O)(=O)c1ccc(C(C)(C)C)cc1 [Compound 67, 4-tert-butyl-N-(4-chloro-5-fluoro-2-(4-methyl-5-(methylsulfonylmethyl)-4H-1,2,4-triazol-3-yl)phenyl)benzenesulfonamide]"
5,> 6.00,Cc1nnc(-c2cc(Cl)ccc2NS(=O)(=O)c2ccc(C(C)(C)C)cc2)n1[C@@H]1CCNC1 [Compound 73]
6,> 6.00,"Cc1nnc(-c2cc(F)c(F)cc2NS(=O)(=O)c2ccc(C(C)(C)C)cc2)n1[C@H]1CCNC1 [Compound 77, (S)-4-tert-butyl-N-(4,5-difluoro-2-(5-methyl-4-(pyrrolidin-3-yl)-4H-1,2,4-triazol-3-yl)phenyl)benzenesulfonamide]"
7,> 6.00,Cc1nnc(-c2cc(Cl)c(F)cc2NS(=O)(=O)c2ccc(C(C)(C)C)cc2)n1C1CCOC1 (centres unmarked) [Compound 80]
8,> 6.00,CC(C)c1nnc(-c2cc(Cl)c(F)cc2NS(=O)(=O)c2ccc(C(C)(C)C)cc2)n1C1CCOC1 (centres unmarked) [Compound 81]
9,> 6.00,CC(C)n1c(-c2cc(Cl)c(F)cc2NS(=O)(=O)c2ccc(C(C)(C)C)cc2)nnc1C1CCOC1 (centres unmarked) [Compound 82]
10,> 6.00,CC(C)(C)c1ccc(S(=O)(=O)Nc2cc(F)c(Cl)cc2-c2nncn2C2CNC2)cc1 [Compound 85]
11,> 6.00,"CCn1c(-c2cc(Cl)c(F)cc2NS(=O)(=O)c2ccc(C(C)(C)C)cc2)nnc1C(C)C [Compound 87, 4-tert-butyl-N-(4-chloro-2-(4-ethyl-5-isopropyl-4H-1,2,4-triazol-3-yl)-5-fluorophenyl)benzenesulfonamide]"
12,> 6.00,CCc1nnc(-c2cc(Cl)c(F)cc2NS(=O)(=O)c2ccc(C(C)(C)C)cc2)n1[C@H]1CCNC1 [Compound 88]
13,> 6.00,CC(C)(C)c1ccc(S(=O)(=O)Nc2cc(F)c(Cl)cc2-c2nncn2[C@H]2CCNC2=O)cc1 [Compound 90]

# Second part, the compound before the results:
row,Structure (SMILES),pIC50
1,"Cc1nnc(-c2cc(Cl)ccc2NS(=O)(=O)c2ccc(OC(C)C)cc2)n1C [Compound 68, N-(4-chloro-2-(4,5-dimethyl-4H-1,2,4-triazol-3-yl)phenyl)-4-isopropoxybenzenesulfonamide]",> 6.00
2,"CC(C)Oc1ccc(S(=O)(=O)Nc2ccc(Cl)cc2-c2nncn2C(C)C)cc1 [Compound 69, N-(4-chloro-2-(4-isopropyl-4H-1,2,4-triazol-3-yl)phenyl)-4-isopropoxybenzenesulfonamide]",> 6.00
3,Cn1c(-c2cc(Cl)ccc2NS(=O)(=O)c2ccc(C(C)(C)C)cc2)nnc1C1CCNCC1 [Compound 70],> 6.00
4,"CCn1c(C)nnc1-c1cc(F)c(F)cc1NS(=O)(=O)c1ccc(C(C)(C)C)cc1 [Compound 71, 4-tert-butyl-N-(2-(4-ethyl-5-methyl-4H-1,2,4-triazol-3-yl)-4,5-difluorophenyl)benzenesulfonamide]",> 6.00
5,"Cc1nnc(-c2ccc(F)cc2NS(=O)(=O)c2ccc(C(C)(C)C)cc2)n1C [Compound 72, 4-tert-butyl-N-(2-(4,5-dimethyl-4H-1,2,4-triazol-3-yl)-5-fluorophenyl)benzenesulfonamide]",> 6.00
6,"CCn1c(C)nnc1-c1ccc(F)cc1NS(=O)(=O)c1ccc(C(C)(C)C)cc1 [Compound 74, 4-tert-butyl-N-(2-(4-ethyl-5-methyl-4H-1,2,4-triazol-3-yl)-5-fluorophenyl)benzenesulfonamide]",> 6.00
7,CC(C)(C)c1ccc(S(=O)(=O)Nc2ccc(Cl)cc2-c2nncn2[C@@H]2CCNC2)cc1 [Compound 75],> 6.00
8,"Cn1cnnc1-c1cc(Cl)c(F)cc1NS(=O)(=O)c1ccc(C(C)(C)C)cc1 [Compound 76, 4-tert-butyl-N-(4-chloro-5-fluoro-2-(4-methyl-4H-1,2,4-triazol-3-yl)phenyl)benzenesulfonamide]",> 6.00
9,"CC(C)n1cnnc1-c1cc(Cl)c(F)cc1NS(=O)(=O)c1ccc(C(C)(C)C)cc1 [Compound 78, 4-tert-butyl-N-(4-chloro-5-fluoro-2-(4-isopropyl-4H-1,2,4-triazol-3-yl)phenyl)benzenesulfonamide]",> 6.00
10,Cc1ocnc1-c1nnc(-c2cc(Cl)c(F)cc2NS(=O)(=O)c2ccc(C(C)(C)C)cc2)n1C [Compound 79],> 6.00
11,"Cc1nnc(-c2cc(Cl)ccc2NS(=O)(=O)c2ccc(C(C)(C)C)cc2)n1CCN [Compound 83, N-(2-(4-(2-aminoethyl)-5-methyl-4H-1,2,4-triazol-3-yl)-4-chlorophenyl)-4-tert-butylbenzenesulfonamide]",> 6.00
12,"Cc1nnc(-c2cc(Cl)ccc2NS(=O)(=O)c2ccc(C(C)(C)C)cc2)n1C1CCC1 [Compound 84, 4-tert-butyl-N-(4-chloro-2-(4-cyclobutyl-5-methyl-4H-1,2,4-triazol-3-yl)phenyl)benzenesulfonamide]",> 6.00
13,"CC(C)n1c(-c2cc(Cl)ccc2NS(=O)(=O)c2ccc(C(C)(C)C)cc2)nnc1C(F)(F)F [Compound 86, 4-tert-butyl-N-(4-chloro-2-(4-isopropyl-5-(trifluoromethyl)-4H-1,2,4-triazol-3-yl)phenyl)benzenesulfonamide]",> 6.00
14,"Cn1c(CCS(C)(=O)=O)nnc1-c1cc(Cl)c(F)cc1NS(=O)(=O)c1ccc(C(C)(C)C)cc1 [Compound 89, 4-tert-butyl-N-(4-chloro-5-fluoro-2-(4-methyl-5-(2-(methylsulfonyl)ethyl)-4H-1,2,4-triazol-3-yl)phenyl)benzenesulfonamide]",> 6.00
15,CC(=O)N1CCC(n2c(C)nnc2-c2cc(Cl)ccc2NS(=O)(=O)c2ccc(C(C)(C)C)cc2)CC1 [Compound 91],> 6.00
16,"CC(C)n1c(N)nnc1-c1cc(Cl)ccc1NS(=O)(=O)c1ccc(C(C)(C)C)cc1 [Compound 92, N-(2-(5-amino-4-isopropyl-4H-1,2,4-triazol-3-yl)-4-chlorophenyl)-4-tert-butylbenzenesulfonamide]",> 6.00
17,Cc1nnc(-c2cc(Cl)ccc2NS(=O)(=O)c2ccc(C(C)(C)C)cc2)n1C1CCN(S(C)(=O)=O)CC1 [Compound 93],> 6.00
18,Cc1nnc(-c2cc(Cl)ccc2NS(=O)(=O)c2ccc(C(C)(C)C)cc2)n1C1CCN(C(N)=O)CC1 [Compound 94],> 6.00
19,"Cc1nnc(-c2ccc(Cl)cc2NS(=O)(=O)c2ccc(C(C)(C)C)cc2)n1C(C)C [Compound 95, 4-tert-butyl-N-(5-chloro-2-(4-isopropyl-5-methyl-4H-1,2,4-triazol-3-yl)phenyl)benzenesulfonamide]",> 6.00
